# Columns and labels:
# TNBC cells [1] = assay: MTT cell viability assay, statements for both TNBC lines; format: cell-based, Human; conditions: MDA-MB-231 and MDA-MB-468; 24, 48 and 72 h
# Method: Compounds were dissolved in a hydrous dimethylsulfoxide (DMSO, Life technologies) to obtain a 50 mM stock solution, which was then added to the culture medium at a concentration range of 6.25-100 μM. […] Z-VAD-FMK was purchased from Selleckchem (Houston, Tex.); The reagents including 3-(4,5-dimethylthiazol-2-yl)-2,5-diphenyltetrazolium bromide (MTT), dimethyl sulfoxide (DMSO), penicillin, streptomycin, propidium iodide (PI) were purchased from Sigma-Aldrich (MO, USA); All the primary antibodies used in this study were from Cell Signaling Technology (MA, USA) and the secondary antibodies were from LI-COR Biosciences (NE, USA).
# Human triple negative breast cancer cell lines MDA-MB-231 and MDA-MB-468 were purchased from the American Type Culture Collection (ATCC, VA, USA). These cells were cultured in high-glucose DMEM (Gibco, USA) supplemented with 10% fetal bovine serum (FBS, Gibco) and 1% penicillin/streptomycin (Gibco) at 37° C. in a humidified incubator containing 5% CO2.
# The antiproliferative activity of compounds was measured with the MTT assay. […] The absorbance value was determined at 570 nm using a microplate reader (Bio-Tek, VT, USA). Data were analyzed by GraphPad Prism 6. […]
# TNBC cells [2] = assay: Cell counting assay with microscope; format: cell-based, Human; conditions: 48 h
# Method: FIG. 2A: cell viability was measured with the MTT assay. MDA-MB-231 and MDA-MB-468 cells were exposed to the indicated concentrations of compound 7a for 24, 48 and 72 h. FIGS. 2B and 2C: cell morphology and cell count of MDA-MB-231 and MDA-MB-468 cells were captured with microscope after treating with the indicated concentrations of compound 7a for 48 h. These cells were visualized with the images and quantitated by histogram, Scale bar, 100 μm. FIGS. 2D and 2E: colony formation assay was performed to evaluate TNBC growth in vitro after treatment with the indicated concentrations of compound 7a for 14 days. The colonies were visualized with the images and quantitated by histogram.
# [3] = system: MDA-MB-231 and MDA-MB-468 cells; assay: Colony forming assay; format: cell-based, Human; conditions: 0, 5, 10, 20 μmol/L
# Method: MAD-MB-231 and MDA-MB-468 cells were seeded in a six-well plate at 1000 cells/well and treated with various concentrations of compound 7a (0, 5, 10, 20 μmol/L) for 48 h. After discarding the supernatant, the cells were cultured with fresh medium for 15 days until formed the visible colonies. Finally, colonies were fixed with 4% paraformaldehyde (PFA) and stained with crystal violet for 30 min to enable enumeration of colonies.
# TNBC cells [4] = assay: Ki67-staining immunofluorescence; format: cell-based, Human; conditions: 48 h, versus controls
# Method: Cells were plated on glass coverslips in 24-well plates prior to treatment. After being exposed to different doses of compound 7a for 48 h, cells were washed with PBS for three times, fixed with 4% paraformaldehyde-PBS for 30 min, and then followed by permeabilization with 0.1% Triton X-100 for 10 min. Next, the samples were blocked with QuickBlock Blocking Buffer for Immunol Staining (Beyotime) for 30 min at 37° C., and incubated with anti-Ki67 (1:250), anti-LC3B antibody (1:250), anti-SQSTM1 antibody (1:250) or anti-γH2AX (1:250) overnight at 4° C. After washing with PBS three times, the stained cells were incubated with Alexa Fluor-conjugated secondary antibodies (1:2000) for 1 hour at room temperature. Moreover, 1 mg/mL DAPI dissolved in PBS were employed to label nuclei (30 min). Images were captured with a High Content analysis system (Perkinelmer, MA, USA).
# HCT116 cells = assay: mCherry-GFP-LC3B reporter autophagic flux assay; format: cell-based; conditions: 12 h treatment, versus control
# Method: Mcherry-EGFP-LC3B overexpression system was co-transfected with lenviral packaging vectors pSPAX2 and pMD2G into HEK293FT cells using Fugene Transfection Reagent (Promega, MW, USA). Virus particles were collected after 48 h infection, filtered through a 0.22 μm membrane, added into colorectal cancer cell HCT116, and then incubated for 12 h at 37° C. The medium was replaced and HCT116 cells were selected for puromycin tolerance (10 μg/mL) to obtain the stable cells expressing mcherry-EGFP-LC3B.
structure (smiles),measurement,setting,value
O=C(NC1CCCCC1)c1[nH]cnc1-c1nc2ccccc2[nH]1 [Compound 7a],TNBC cell viability,TNBC cells [1],efficiently inhibited TNBC cell viability in a time- and dose-dependent manner
same,proliferation by cell count,TNBC cells [2],significantly inhibited proliferation of TNBC cells
same,colony formation,[3],smaller and decreased colony numbers
same,rate of Ki67-positive cells,TNBC cells [4],notably reduced rate of Ki67-positive cells
same,number of yellow fluorescent vesicles (autophagosomes),HCT116 cells,significant increase in the number of yellow fluorescent vesicles
